# Structures can show the parent of a compound that is named as a salt. Where two headings read alike, the source gives them in different places.
# What was measured:
# [1] = system: NLRP3 inflammasome; assay: IL-1β secretion assay (LPS-primed, nigericin-activated THP-1 cells, MSD readout); type: cell-based; settings: Homo sapiens, read-out: IL1b IC50
# In short: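 THP-1 monocytes primed with LPS (10 ng/mL, 3 h, 37 °C), then co-incubated 2 h with serially diluted compound and nigericin 10 μM (final). Supernatant IL-1β measured by MSD electrochemiluminescence immunoassay. IC50 derived from four-parameter logistic fit of % inhibition versus concentration.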
# [2] = Brain over plasma ratio evaluation; type: in vivo; settings: mouse, brain and plasma, iv; female C57B16 mice, single i.v. 1 mg/kg, 0.25 h post dosing, geometric mean of 3 animals
# Description: Brain Over Plasma Ratio Evaluation
# A solution of 3 mg of compound in a generic vehicle (Glycofurol/solutol/Dextrose 5%: 10%/5%/85%, adjusted at pH3), final concentration 0.2 mg/ml, are stirred overnight at ambient temperature whilst protected from light.
# Female C57B16 mice between the ages of 8-12 weeks are administered with the prepared solution, as single intravenous dose of 1 mg/kg into the tail vein with a dose volume of 5 ml/kg. A total of 3 animal replicates are evaluated for each compound utilizing a terminal sampling approach. After 0.25 h post dosing, under anesthesia, 400 μL of blood and the whole brain are collected. Blood sample is centrifuged at 4° C. for 10 minutes at 1500 g; brain is weighted, homogenized using deionized water to give a final ratio of (1/2:w/v). Plasma and brain concentrations are measured by an exploratory LC-MS/MS method.
# Individual brain over plasma concentration ratio is calculated for each animal, and geometric mean value is reported.
# [3] = system: TNF-α secretion; assay: TNF-α secretion assay (PMA-differentiated THP-1 cells, LPS-triggered, MSD readout); type: cell-based; settings: Homo sapiens, LPS 24 h; for inhibition at 3 µM: compound at 3 μM; for inhibition at 10 µM: compound at 10 μM
# Description: Monocytic THP-1 cells (DSMZ) were maintained in RPMI media (RPMI 1640 Medium (1×) +10% FBS, biowest S181H). Cells were then differentiated at 160,000 cells per well in 96-well flat bottom cell culture plates with RPMI+0.1% Bovine Serum Albumin solution and 0.5 μM phorbol 12-myristate 13-acetate (PMA; Sigma, ref:P8139) overnight at 37° C. Experimental compounds were prepared and added as described above. TNF-α secretion was triggered by the addition of 0.5 μg/mL LPS (invivoGen, tlrl-3pelps) and cells were incubated for 24 h. 2.5 μL supernatant was removed, and TNF-α levels were monitored using an MSD assay (mesoscale, K15049) according to manufacturers' instructions.
# IC50 values were calculated from the plot of percentage of inhibition versus the inhibitor concentration by a logistics fit according to: y=A2+(A1−A2)/(1+(x/IC50)^p) where y is the %-inhibition at the inhibitor concentration, x. A1 is the lowest inhibition value, i.e., 0%, and A2 the maximum inhibition value, i.e., 100%. The exponent, p, is the Hill coefficient. The curve fitting was conducted with an internally developed software.
Compound,"IC50 ([1]; THP-1, LPS-primed) [nM]",Kp at 0.25 h [2],inhibition at 3 µM [3] [%],inhibition at 10 µM [3] [%],IC50 ([1]; LPS-primed) [nM]
"CC(C)c1nn(CC(=O)N[C@@H]2CCCN(C3CC3)C2)c(=O)c2cc3cc(Cl)sc3n12.O=C(O)C(F)(F)F [Example 6, (R)-2-(2-chloro-8-isopropyl-5-oxothieno[3′,2′:4,5]pyrrolo[1,2-d][1,2,4]triazin-6(5H)-yl)-N-(1-cyclopropylpiperidin-3-yl)acetamide 2,2,2-trifluoroacetate]",158,7.58,,,
"CC(C)c1nn(CC(=O)N[C@@H]2CCCN(C3CCC3)C2)c(=O)c2cc3cc(Cl)sc3n12.O=CO [Example 10, (R)-2-(2-chloro-8-isopropyl-5-oxothieno[3′,2′:4,5]pyrrolo[1,2-d][1,2,4]triazin-6(5H)-yl)-N-(1-cyclobutylpiperidin-3-yl)acetamide formate]",101,5.84,3,-11.9,
"CC(C)c1nn(CC(=O)N[C@@H]2CCCN(C3CCC3)C2)c(=O)c2cc3ccsc3n12.O=CO [Example 11, (R)—N-(1-cyclobutylpiperidin-3-yl)-2-(8-isopropyl-5-oxothieno[3′,2′:4,5]pyrrolo[1,2-d][1,2,4]triazin-6(5H)-yl)acetamide formate]",45,3.2,20.1,-12.7,
"C=O.CC(C)c1nn(CC(=O)N[C@@H]2CCCN(CC3CC3(F)F)C2)c(=O)c2cc3ccsc3n12 (stereo partly drawn) [Example 18, N-((3R)-1-((2,2-difluorocyclopropyl)methyl)piperidin-3-yl)-2-(8-isopropyl-5-oxothieno [3′,2′:4,5]pyrrolo[1,2-d][1,2,4]triazin-6(5H)-yl)acetamide compound with formaldehyde]",,1.56,9.6,21.6,236
"O=C(Cn1nc(C2CC2)n2c(cc3ccsc32)c1=O)N[C@@H]1CCCN(C2CCC2)C1 [Example 20, (R)—N-(1-cyclobutylpiperidin-3-yl)-2-(8-cyclopropyl-5-oxothieno[3′,2′:4,5]pyrrolo[1,2-d][1,2,4]triazin-6(5H)-yl)acetamide]",185,,-6.1,-26,
"O=C(Cn1nc(C2CC2)n2c(cc3ccsc32)c1=O)N[C@@H]1CCCN(C2CC2)C1 [Example 21, (R)-2-(8-cyclopropyl-5-oxothieno[3′,2′:4,5]pyrrolo[1,2-d][1,2,4]triazin-6(5H)-yl)-N-(1-cyclopropylpiperidin-3-yl)acetamide]",60,,11.7,13.5,
"CC(C)c1nn(CC(=O)N[C@@H]2CCCN(C3CCC3)C2)c(=O)c2cc3cc(Br)sc3n12 [Example 31, (R)-2-(2-bromo-8-isopropyl-5-oxothieno[3′,2′:4,5]pyrrolo[1,2-d][1,2,4]triazin-6(5H)-yl)-N-(1-cyclobutylpiperidin-3-yl)acetamide 2,2,2-trifluoroacetate]",30,,10.5,32.5,
"CC(C)c1nn(CC(=O)N[C@@H]2CCCN(CCCF)C2)c(=O)c2cc3ccsc3n12.O=CO [Example 41, (R)—N-(1-(3-fluoropropyl)piperidin-3-yl)-2-(8-isopropyl-5-oxothieno[3′,2′:4,5]pyrrolo[1,2-d][1,2,4]triazin-6(5H)-yl)acetamide formate]",37,1.56,,,
"CC(C)c1nn(CC(=O)NC2CCCN(C(C)(C)C)C2)c(=O)c2cc3cc(Br)sc3n12 (centres unmarked) [Example 59, 2-(4-bromo-12-isopropyl-9-oxo-3-thia-1,10,11-triazatricyclo[6.4.0.02,6]dodeca-2(6),4,7,11-tetraen-10-yl)-N-(1-tert-butyl-3-piperidyl)acetamide]",34,1.15,,,

# The remaining molecules from weak to strong by IC50 ([1]; THP-1, LPS-primed), led by results:
"IC50 ([1]; THP-1, LPS-primed) [nM]",Kp at 0.25 h [2],Compound,inhibition at 3 µM [3] [%],inhibition at 10 µM [3] [%],IC50 ([1]; LPS-primed) [nM]
2890,,"CN1CCC[C@@H](NC(=O)Cn2nc(C3CC3)n3c(cc4ccsc43)c2=O)C1 [Example 24, (R)-2-(8-cyclopropyl-5-oxothieno[3′,2′:4,5]pyrrolo[1,2-d][1,2,4]triazin-6(5H)-yl)-N-(1-methylpiperidin-3-yl)acetamide formate]",12,15.5,
775,,"CC(C)c1nn(CC(=O)N[C@@H]2CCCN(CC3CC3)C2)c(=O)c2cc3ccsc3n12 [Example 28, (R)—N-(1-(cyclopropylmethyl)piperidin-3-yl)-2-(8-isopropyl-5-oxothieno[3′,2′:4,5]pyrrolo [1,2-d][1,2,4]triazin-6(5H)-yl)acetamide formate]",34.4,-45.5,
400,,"C[C@H](O)CN1CCC[C@@H](NC(=O)Cn2nc(C3CC3)n3c(cc4ccsc43)c2=O)C1 [Example 22, 2-(8-cyclopropyl-5-oxothieno[3′,2′:4,5]pyrrolo[1,2-d][1,2,4]triazin-6(5H)-yl)-N—((R)-1-((S)-2-hydroxypropyl)piperidin-3-yl)acetamide]",-2.9,14.5,
311,,"CC(C)c1nn(CC(=O)N[C@@H]2CCCN(CC(C)(C)O)C2)c(=O)c2cc3ccsc3n12 [Example 23, (R)—N-(1-(2-hydroxy-2-methylpropyl)piperidin-3-yl)-2-(8-isopropyl-5-oxothieno[3′,2′:4,5]pyrrolo[1,2-d][1,2,4]triazin-6(5H)-yl)acetamide formate]",1.8,3.3,
133,0.42,"CC(C)c1nn(CC(=O)N[C@@H]2CCCN(CC3CC(F)(F)C3)C2)c(=O)c2cc3ccsc3n12.O=CO [Example 43, (R)—N-(1-((3,3-difluorocyclobutyl)methyl)piperidin-3-yl)-2-(8-isopropyl-5-oxothieno [3′,2′:4,5]pyrrolo[1,2-d][1,2,4]triazin-6(5H)-yl)acetamide formate]",,,
